Laboratory results as given in US9163044B2, “Carbon monoxide releasing molecules and uses thereof” (Alfama, Inc., priority 2011, dated 2015).

How the values were obtained:
[1] = system: APAP-induced acute liver failure (ALF) model; test: APAP-induced acute liver failure (ALF) model, sublethal (300 mg/kg APAP i.p.); assay type: in vivo, C57Bl/6 male mice; settings: for ALT levels reduced relative to untreated control animals: +5 h after APAP (300 mg/kg), ALT at 22 hours
Description: Compound 3b was studied in a sublethal model for acetaminophen (APAP)-induced Liver Injury.
ALF was induced in C57Bl/6 male mice with a single dose of acetaminophen (300 mg/kg) by i.p. injection. […] Serum alanine aminotransferase (ALT) was measured 22 h after APAP injection (n=5 mice for each group). […] ALF was induced in C57Bl/6 male mice with a single dose of acetaminophen (300 mg/kg) by i.p. injection. […] Twenty-two hours after APAP injection serum ALT was measured (indicated in FIG. 11A), centrilobular sections of mouse livers were cut and stained with hematoxylin and eosin, and the percentage of liver necrosis was determined. The data indicates a dose-dependent reduction of ALT levels of 9% to 83% relative to APAP control, and a dose-dependent reduction of necrosis of 0% to 56% relative to APAP control.
ALF was induced in C57Bl/6 male mice with a single dose of acetaminophen (300 mg/kg) by i.p. injection. […] Alanine aminotransferase (ALT) was measured 22 h after APAP injection (n=4 or n=5 mice for each group).
ALF was induced in C57Bl/6 male mice with a single dose of acetaminophen (300 mg/kg) by i.p. injection. […] Twenty-two hours after APAP injection, serum ALT was measured (indicated in FIGS. 12A-12B), centrilobular sections of mouse livers were cut and stained with hematoxylin and eosin, and the percentage of liver necrosis was determined.
ALF was induced in C57Bl/6 male mice with a single dose of acetaminophen (300 mg/kg) by i.p. injection.
FIG. 14 depicts the effect of late treatment with Compound 3b on serum ALT in ALF model. ALF was induced in C57Bl/6 male mice with a single dose of acetaminophen (300 mg/kg) by i.p. injection. At sixteen hours after APAP injection, the animals were treated with different doses of Compound 3b (0.3, 3, 30 or 60 mg/kg). Alanine aminotransferase (ALT) was measured 22 h after APAP injection (n=4 or n=5 mice for each group).
ALF was induced in C57Bl/6 male mice with a single dose of acetaminophen (300 mg/kg) by i.p. injection. […] Experiments 1 and 2 represent two independent experiments. Alanine aminotransferase (ALT) was measured 22 h after APAP injection (n=4 or n=5 mice for each group). The ALT levels and the respective percentage of ALT increase, relative to the increase observed in mice injected with APAP alone, are presented in Table 7.
ALF was induced in C57Bl/6 male mice with a single dose of acetaminophen (300 mg/kg) by i.p. injection. […] Twenty-two hours after APAP injection, serum ALT was measured and centrilobular sections of mouse livers were cut and stained with hematoxylin and eosin.

[2] = system: lethal APAP liver failure model; test: lethal APAP liver failure model (500 mg/kg APAP i.p.), survival; settings: 2×300 mg/kg, same schedules; data not shown
[3] = system: murine partial hepatectomy model; settings: from Yang et al., Crit. Care (2009); cited from earlier work
[4] = half-life for CO release in sheep blood using an oximeter; assay type: in vitro ADME; settings: 632.1 μg/mL
Description: The stability of compound 4b was determined by measuring the release of CO in vitro in 50 mM Hepes buffer (pH 7.4) using a RCP-equipped GC. Compound 4b concentration was 50 μM. […] The half-life for CO release was also measured in sheep blood using an oximeter. A concentration of 632.1 μg/mL of compound 4b was used.
The half-life for CO release was also measured in sheep blood using an oximeter. […] Compound 5b released 0.12 molar equivalents of CO in 3 hours.

[5] = NAC 2 × 300 mg/kg at 1 h and 3 h post APAP, serum 22 h

## CC(=O)N[C@@H](CS)C(=O)O [NAC, N-acetylcysteine, reference compound]
[1]; [5]
  Measured ALT values (mean ± S.D.) Experiment 1: 1745 ± 738 U/L
  Measured ALT values (mean ± S.D.) Experiment 2: 6620 ± 2142 U/L
[1]; five hours and seven hours after APAP, NAC 150 mg/kg, Compound 3b 120 mg/kg
  effect on serum ALT when given late after APAP injury (in words): no longer effective and increases serum ALT levels (is toxic)
[2]
  survival: 100%
[3]
  effect on liver regeneration (in words): no effect and may be detrimental

## O=C(O)C1([N+]#[C][Mo-6]([C]#[O+])([C]#[O+])([C]#[O+])([C]#[N+]C2(C(=O)O)CC2)[C]#[N+]C2(C(=O)O)CC2)CC1 [Compound 5b, tricarbonyl[tris(isocyanocyclopropylcarboxylic acid)]Mo(0)]
[1]; 120 mg/kg i.p. at +3 h
  ALT levels reduced relative to untreated control animals: 70%
[4]
  CO released in sheep blood in 3 hours: 0.12 molar equivalents of CO

## O=C([O-])CC([N+]#[C][Mo-6]([C]#[O+])([C]#[O+])([C]#[O+])([C]#[N+]C(CC(=O)[O-])C(=O)[O-])[C]#[N+]C(CC(=O)[O-])C(=O)[O-])C(=O)[O-].[Li+].[Li+].[Li+].[Li+].[Li+].[Li+] (centres unmarked) [Compound 4b, tricarbonyl[tris(lithium 2-isocyanosuccinate)]Mo(0)]
[1]; 30 mg/kg i.p. at +3 h
  ALT levels reduced relative to untreated control animals: 75%
